Data taken from patent US8637510B2, “Morpholinothiazoles as alpha 7 positive allosteric modulators” (Janssen Pharmaceutica NV, priority 2009, dated 2014).

Experiments:
[1] = biological target: T1, human alpha 7-wt nAChR-expressing GH4C1 cells (Homo sapiens, UniProt P36544); assay: Patch-clamp current recording (whole-cell voltage-clamp, PAM type classification); format: cell-based; design: key: Type 0 compounds minimally change the effect size of the current elicited by 1 mM choline.; Type 1 compounds enhance the effect size of the current elicited by 1 mM choline but minimally alter the kinetics of the receptor.; Type 2 compounds enhance the effect size of the current elicited by 1 mM choline while reducing the rate and/or the extent of desensitization.; Type 3 compounds enhance the effect size of the current elicited by 1 mM choline. When tested at higher concentrations up to 10 μM they completely inhibit desensitization; Type 4 compounds allow for an initial desensitization of the receptor followed by a re-opening of the receptor during agonist application; conditions: 1 mM choline
T1 construct: expressed in transfected cells
Summary of the method: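 Whole-cell voltage clamp of GH4C1 cells stably expressing human wild-type α7 nAChR, with compound co-applied with 1 mM choline via rapid (<100 ms) solution switching; external pH 7.3, CsCl-based internal solution, 1.5-3 MΩ electrodes. PAM type (0-4) assigned from current kinetics when peak potentiation reached ≥200% of control choline response.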

T1 sequence (P36544 23-502): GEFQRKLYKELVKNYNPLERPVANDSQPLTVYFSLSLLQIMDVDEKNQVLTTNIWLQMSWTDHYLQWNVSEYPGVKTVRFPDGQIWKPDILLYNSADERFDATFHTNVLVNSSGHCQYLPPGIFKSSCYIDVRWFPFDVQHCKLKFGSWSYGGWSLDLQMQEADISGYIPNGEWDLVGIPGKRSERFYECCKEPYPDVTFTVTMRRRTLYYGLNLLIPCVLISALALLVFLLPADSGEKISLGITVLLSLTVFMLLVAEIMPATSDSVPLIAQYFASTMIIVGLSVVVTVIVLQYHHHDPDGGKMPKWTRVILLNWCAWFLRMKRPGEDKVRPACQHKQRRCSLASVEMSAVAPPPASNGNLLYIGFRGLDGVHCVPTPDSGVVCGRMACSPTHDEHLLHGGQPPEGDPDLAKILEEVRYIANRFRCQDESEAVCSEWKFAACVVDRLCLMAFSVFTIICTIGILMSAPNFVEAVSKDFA

melting point [°C]	SMILES	PAM_Type PAM type [1]
174	Cc1cc(-c2sc(N3C[C@@H](C)O[C@@H](C)C3)nc2CNC(=O)CC2CC2)cc(C)n1 [Compound 1, N-[[2-[(2R,6S)-2,6-dimethyl-4-morpholinyl]-5-(2,6-dimethyl-4-pyridinyl)-4-thiazolyl]methyl]-cyclopropaneacetamide]	2
141	Cc1cc(-c2sc(N3C[C@@H](C)O[C@@H](C)C3)nc2CNC(=O)c2conc2C)cc(C)n1 [Compound 18, N-[[2-[(2R,6S)-2,6-dimethyl-4-morpholinyl]-5-(2,6-dimethyl-4-pyridinyl)-4-thiazolyl]methyl]-3-methyl-4-isoxazolecarboxamide]	2
